Laboratory results as given in ChEMBL document CHEMBL1201862, “PubChem BioAssay data set” (2004).
Activity calls are given as the source filed them.

Key:
[1] = HEp-2 cell cytotoxicity, dose response, cytotoxicity control for RSV inhibitor project, HTS (AID 2410); type: functional; conditions: human respiratory syncytial virus
[2] = target: T1, Voltage-gated N-type calcium channel alpha-1B subunit/Amyloid beta A4 precursor protein-binding family A member 1 (Homo sapiens, UniProt Q00975+Q02410); type: protein assay
[3] = target: T1, Voltage-gated N-type calcium channel alpha-1B subunit/Amyloid beta A4 precursor protein-binding family A member 1; type: protein assay; remark: listed apart in the source
Trypsin = Trypsin (Sus scrofa, UniProt P00761); assay: porcine trypsin inhibitors, dose response, selectivity assay for Rce1 protease inhibitor project, biochemical, quenched peptide fluorescence, cherry-pick (AID 488789)
CAAX prenyl protease 2 [4] = target: T2, CAAX prenyl protease 2 (Saccharomyces cerevisiae S288c, UniProt Q03530); type: biochemical
T2 sequence (Q03530 whole entry): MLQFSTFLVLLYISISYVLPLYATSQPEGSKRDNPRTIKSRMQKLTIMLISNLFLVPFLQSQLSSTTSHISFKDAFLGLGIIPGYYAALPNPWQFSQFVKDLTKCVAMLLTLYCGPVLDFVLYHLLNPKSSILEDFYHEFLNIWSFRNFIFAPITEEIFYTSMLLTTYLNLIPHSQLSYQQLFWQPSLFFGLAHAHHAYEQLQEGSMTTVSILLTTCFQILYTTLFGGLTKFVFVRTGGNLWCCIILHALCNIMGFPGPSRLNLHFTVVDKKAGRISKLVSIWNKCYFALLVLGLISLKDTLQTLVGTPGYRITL

CAAX prenyl protease 1 = CAAX prenyl protease 1 (Saccharomyces cerevisiae S288c, UniProt P47154); assay: Ste24 protease inhibitors, dose response, biochemical, S. cerevisiae, plate reader, cherry-pick (AID 488815)
CAAX prenyl protease 2 [5] = target: T3, CAAX prenyl protease 2 (Homo sapiens, UniProt Q9Y256); assay: human Rce1 protease inhibitors, dose response, biochemical, yeast membranes, quenched-peptide fluorescence, cherry-pick (AID 588849)
T3 sequence (Q9Y256 whole entry): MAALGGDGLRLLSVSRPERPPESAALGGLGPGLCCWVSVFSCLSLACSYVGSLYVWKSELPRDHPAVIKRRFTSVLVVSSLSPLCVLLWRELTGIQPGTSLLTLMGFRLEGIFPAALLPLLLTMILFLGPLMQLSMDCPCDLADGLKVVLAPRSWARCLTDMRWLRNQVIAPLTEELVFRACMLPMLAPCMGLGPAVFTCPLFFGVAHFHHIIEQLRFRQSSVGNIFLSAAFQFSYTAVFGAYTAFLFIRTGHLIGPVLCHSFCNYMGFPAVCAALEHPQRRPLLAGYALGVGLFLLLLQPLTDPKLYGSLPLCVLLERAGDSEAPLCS

Cytochrome P450 2C19 = Cytochrome P450 2C19 (Homo sapiens, UniProt P33261); assay: Cytochrome panel assay with activity outcomes. Panel member name: p450-cyp2c19 Compounds with AC50 equal or less than 10 uM are considered active; type: functional; conditions: read-out: AC50
Cytochrome P450 2D6 = Cytochrome P450 2D6 (Homo sapiens, UniProt P10635);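 note: CYP2D6 member of a cytochrome P450 panel assay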
[6] = target: T4, RNA-binding protein pos-1 (Caenorhabditis elegans, UniProt G5EF15); assay: inhibitors of POS-1/mex-3 RNA binding, dose response, biochemical, fluorescence polarization (AID 1964);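 note: purified POS-1 fused to maltose binding protein made in E. coli; potency of compounds blocking POS-1 binding to fluorescent RNA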
T4 sequence (G5EF15 whole entry): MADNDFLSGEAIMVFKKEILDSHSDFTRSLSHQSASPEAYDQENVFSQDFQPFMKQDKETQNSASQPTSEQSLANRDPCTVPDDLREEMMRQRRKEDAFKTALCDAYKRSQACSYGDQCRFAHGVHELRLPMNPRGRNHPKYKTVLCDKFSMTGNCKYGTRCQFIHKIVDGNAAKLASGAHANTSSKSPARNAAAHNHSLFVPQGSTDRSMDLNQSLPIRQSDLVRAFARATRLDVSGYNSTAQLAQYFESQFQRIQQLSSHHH

[7] = target: T5, Zinc finger protein mex-5 (Caenorhabditis elegans, UniProt Q9XUB2); assay: MEX-5/TCR-2 RNA interaction inhibitors, dose response, biochemical, C. elegans, fluorescence polarization (AID 1960)
T5 sequence (Q9XUB2 whole entry): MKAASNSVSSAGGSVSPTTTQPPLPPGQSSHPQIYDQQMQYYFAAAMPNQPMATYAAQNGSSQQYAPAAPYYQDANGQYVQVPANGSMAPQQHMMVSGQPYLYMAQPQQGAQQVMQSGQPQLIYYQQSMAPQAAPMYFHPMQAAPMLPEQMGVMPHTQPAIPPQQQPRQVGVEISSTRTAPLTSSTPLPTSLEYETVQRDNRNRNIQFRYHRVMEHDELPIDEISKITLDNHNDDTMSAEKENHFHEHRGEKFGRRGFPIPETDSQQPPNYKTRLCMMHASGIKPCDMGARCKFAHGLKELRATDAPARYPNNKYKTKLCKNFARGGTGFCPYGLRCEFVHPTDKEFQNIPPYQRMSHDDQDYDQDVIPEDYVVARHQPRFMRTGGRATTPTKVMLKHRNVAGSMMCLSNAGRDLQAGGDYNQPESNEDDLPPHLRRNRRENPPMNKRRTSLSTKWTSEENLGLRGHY

Keap1/Nrf2 = Keap1/Nrf2 (Homo sapiens, UniProt Q14145); assay: Keap1-Nrf2 protein-protein interaction inhibitors, dose response, biochemical, fluorescence polarization, cherry-picked samples (AID 588683)
Cytochrome P450 3A4 = Cytochrome P450 3A4 (Homo sapiens, UniProt P08684);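 note: CYP3A4 tested as one member of a cytochrome P450 panel screen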
[8] = target: T6, Delta-type opioid receptor (Homo sapiens, UniProt P41143); assay: HTS Image-Based Screen for Antagonists of the DOR Receptor. [Related pubchem assays (depositor defined):AID1777, AID1785, AID1786, AID2133]; type: functional
Mu-type opioid receptor = Mu-type opioid receptor (Homo sapiens, UniProt P35372); assay: HTS Image-Based Screen for Agonists of the MOR Receptor. [Related pubchem assays (depositor defined):AID1777, AID1785, AID1786, AID2133]; type: functional;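 note: imaging of beta-arrestin GFP recruitment into spots after receptor activation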
[9] = target: T6, Delta-type opioid receptor; assay: HTS Image-Based Screen for Agonists of the DOR Receptor. [Related pubchem assays (depositor defined):AID1777, AID1786, AID2133]; type: functional
[10] = target: T7, Kappa-type opioid receptor (Homo sapiens, UniProt P41145); type: functional
Beta-galactosidase = Beta-galactosidase (Escherichia coli, UniProt Q8VNN2); type: functional
[11] = target: T7, Kappa-type opioid receptor; type: functional; remark: listed apart in the source
H9c2 = assay: cells; type: functional, cell-based; conditions: Rattus norvegicus, H9c2, Myocardium;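 note: confirmatory concentration-response retest of ultra-high-throughput screening hits for modulation of myocardial damage; cell death induced by hydrogen peroxide oxidative stress; compound pretreatment for 60 min then peroxide exposure for 2 h; potency is for protecting the cells against peroxide damage rather than for killing them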
SUMO-activating enzyme = SUMO-activating enzyme (Homo sapiens, UniProt Q9UBT2); assay: SUMOylation inhibitor hit validation, confirmation, SUMOylation inhibitor project, biochemical, AlphaScreen (AID 2018); type: functional
[12] = growth suppression of PTEN-null colon cells, dose response, cell-based, HCT116 PTEN knockout (AID 1047); type: functional;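 note: HCT116 colon tumor cells with PTEN knocked out; cells exposed to compound for 60 hours before readout; potency for loss of cell viability measured by luminescence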
[13] = THP-1 cell cytotoxicity, dose response, cytotoxicity control for non-replicating M. tuberculosis project (AID 489025); type: functional
[14] = Vero E6 cell cytotoxicity, dose response, cytotoxicity control for non-replicating M. tuberculosis project, secondary assay (AID 492998); type: functional, VeroE6; conditions: Vero C1008
[15] = inhibitors of firefly luciferase expression or activity, dose response, H4 neuroglioma cells, luminescence (AID 1990); type: functional, cell-based
[16] = Luminescence Cell-Based Dose Response HTS to Identify Inhibitors of 5'UTR Stem-Loop Driven Prion Protein mRNA Translation in H4 Neuroglioblastoma Cells. [Related pubchem assays: 1827 (Project Summary), 1813 (Primary HTS)]; type: functional
[17] = inhibitors of SNCA 5'UTR-driven reporter translation, confirmation, H4 neuroglioma cells, luminescence (AID 1988); type: functional, cell-based
[18] = target: T8, Tyrosine-protein phosphatase non-receptor type 22 (Homo sapiens, UniProt Q9Y2R2); assay: SAR LYP1 Fluorescent Assay using pCAP substrate for In Vitro dose response studies - Set 2. [Related pubchem assays (depositor defined):AID1779, AID1784, AID2135, AID449727]; type: functional
T8 sequence (Q9Y2R2 whole entry): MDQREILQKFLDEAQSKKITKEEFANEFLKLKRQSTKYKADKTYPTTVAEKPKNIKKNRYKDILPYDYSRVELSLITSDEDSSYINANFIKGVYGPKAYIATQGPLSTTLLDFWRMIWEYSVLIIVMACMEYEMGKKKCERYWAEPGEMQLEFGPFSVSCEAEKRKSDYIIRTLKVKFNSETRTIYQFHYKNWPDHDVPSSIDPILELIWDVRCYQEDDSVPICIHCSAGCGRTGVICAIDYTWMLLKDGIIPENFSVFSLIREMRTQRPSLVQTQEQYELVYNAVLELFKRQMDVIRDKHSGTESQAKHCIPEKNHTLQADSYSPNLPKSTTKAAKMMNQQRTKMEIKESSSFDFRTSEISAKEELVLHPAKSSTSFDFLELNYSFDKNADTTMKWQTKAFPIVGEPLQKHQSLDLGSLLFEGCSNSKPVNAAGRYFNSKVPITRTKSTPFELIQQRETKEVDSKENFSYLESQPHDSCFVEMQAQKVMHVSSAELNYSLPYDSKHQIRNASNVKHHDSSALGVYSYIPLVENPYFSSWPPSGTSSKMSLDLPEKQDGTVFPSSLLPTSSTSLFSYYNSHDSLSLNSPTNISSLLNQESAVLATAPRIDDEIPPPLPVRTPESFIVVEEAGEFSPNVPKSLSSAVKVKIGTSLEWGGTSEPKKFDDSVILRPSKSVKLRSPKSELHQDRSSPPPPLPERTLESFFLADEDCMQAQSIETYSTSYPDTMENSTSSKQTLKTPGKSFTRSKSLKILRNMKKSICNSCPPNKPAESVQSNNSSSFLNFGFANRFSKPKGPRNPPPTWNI

[19] = target: T8, Tyrosine-protein phosphatase non-receptor type 22; assay: SAR LYP1 Fluorescent Assay using OMFP substrate for In Vitro dose response studies - Set 3. [Related pubchem assays (depositor defined):AID1779, AID1784, AID2140, AID2686]; type: functional
[20] = target: T9, Tyrosine-protein phosphatase non-receptor type 7 (Homo sapiens, UniProt P35236); assay: HePTP (PTPN7) phosphatase inhibitor potency, SAR follow-up, biochemical, set 2 (AID 449736); type: functional
T9 sequence (P35236 whole entry): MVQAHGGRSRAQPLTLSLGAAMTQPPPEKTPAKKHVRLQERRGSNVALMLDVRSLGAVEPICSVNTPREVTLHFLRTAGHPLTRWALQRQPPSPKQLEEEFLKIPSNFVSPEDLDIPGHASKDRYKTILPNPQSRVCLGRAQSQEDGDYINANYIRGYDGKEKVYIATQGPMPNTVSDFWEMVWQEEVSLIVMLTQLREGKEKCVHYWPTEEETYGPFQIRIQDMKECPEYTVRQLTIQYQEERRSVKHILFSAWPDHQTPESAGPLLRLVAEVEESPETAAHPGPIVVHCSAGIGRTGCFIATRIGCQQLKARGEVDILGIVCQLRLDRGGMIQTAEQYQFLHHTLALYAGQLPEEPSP

[21] = target: T8, Tyrosine-protein phosphatase non-receptor type 22; assay: LYP (PTPN22) phosphatase inhibitor potency, SAR follow-up, biochemical, pCAP fluorogenic substrate, fluorescence, set 3 (AID 449727); type: functional
[22] = target: T8, Tyrosine-protein phosphatase non-receptor type 22; assay: SAR LYP1 Fluorescent Assay using OMFP substrate for In Vitro dose response studies - Set 2. [Related pubchem assays (depositor defined):AID1779, AID1784, AID2140, AID449726, AID488869]; type: functional

T7 sequence (P41145 whole entry): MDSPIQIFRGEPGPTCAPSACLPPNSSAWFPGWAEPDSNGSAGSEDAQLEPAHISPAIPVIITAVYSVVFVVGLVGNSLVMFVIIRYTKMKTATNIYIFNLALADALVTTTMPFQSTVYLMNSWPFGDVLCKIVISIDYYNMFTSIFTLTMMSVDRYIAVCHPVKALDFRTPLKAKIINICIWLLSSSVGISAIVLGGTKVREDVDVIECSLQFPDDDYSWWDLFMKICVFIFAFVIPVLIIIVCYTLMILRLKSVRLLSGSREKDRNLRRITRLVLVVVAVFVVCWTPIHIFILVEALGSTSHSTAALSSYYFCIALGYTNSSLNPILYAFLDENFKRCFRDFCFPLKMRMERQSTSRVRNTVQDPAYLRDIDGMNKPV
T6 sequence (P41143 whole entry): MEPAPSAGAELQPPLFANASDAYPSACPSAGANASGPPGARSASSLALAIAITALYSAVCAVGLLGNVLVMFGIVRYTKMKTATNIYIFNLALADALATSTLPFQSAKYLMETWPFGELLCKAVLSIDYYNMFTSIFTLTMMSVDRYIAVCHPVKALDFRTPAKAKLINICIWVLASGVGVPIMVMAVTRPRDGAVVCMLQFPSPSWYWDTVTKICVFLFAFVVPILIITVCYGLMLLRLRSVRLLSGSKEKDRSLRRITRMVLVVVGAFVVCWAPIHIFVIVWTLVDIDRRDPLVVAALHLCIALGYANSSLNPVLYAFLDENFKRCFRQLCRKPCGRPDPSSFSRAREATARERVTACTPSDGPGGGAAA
T1 sequence (Q00975 whole entry): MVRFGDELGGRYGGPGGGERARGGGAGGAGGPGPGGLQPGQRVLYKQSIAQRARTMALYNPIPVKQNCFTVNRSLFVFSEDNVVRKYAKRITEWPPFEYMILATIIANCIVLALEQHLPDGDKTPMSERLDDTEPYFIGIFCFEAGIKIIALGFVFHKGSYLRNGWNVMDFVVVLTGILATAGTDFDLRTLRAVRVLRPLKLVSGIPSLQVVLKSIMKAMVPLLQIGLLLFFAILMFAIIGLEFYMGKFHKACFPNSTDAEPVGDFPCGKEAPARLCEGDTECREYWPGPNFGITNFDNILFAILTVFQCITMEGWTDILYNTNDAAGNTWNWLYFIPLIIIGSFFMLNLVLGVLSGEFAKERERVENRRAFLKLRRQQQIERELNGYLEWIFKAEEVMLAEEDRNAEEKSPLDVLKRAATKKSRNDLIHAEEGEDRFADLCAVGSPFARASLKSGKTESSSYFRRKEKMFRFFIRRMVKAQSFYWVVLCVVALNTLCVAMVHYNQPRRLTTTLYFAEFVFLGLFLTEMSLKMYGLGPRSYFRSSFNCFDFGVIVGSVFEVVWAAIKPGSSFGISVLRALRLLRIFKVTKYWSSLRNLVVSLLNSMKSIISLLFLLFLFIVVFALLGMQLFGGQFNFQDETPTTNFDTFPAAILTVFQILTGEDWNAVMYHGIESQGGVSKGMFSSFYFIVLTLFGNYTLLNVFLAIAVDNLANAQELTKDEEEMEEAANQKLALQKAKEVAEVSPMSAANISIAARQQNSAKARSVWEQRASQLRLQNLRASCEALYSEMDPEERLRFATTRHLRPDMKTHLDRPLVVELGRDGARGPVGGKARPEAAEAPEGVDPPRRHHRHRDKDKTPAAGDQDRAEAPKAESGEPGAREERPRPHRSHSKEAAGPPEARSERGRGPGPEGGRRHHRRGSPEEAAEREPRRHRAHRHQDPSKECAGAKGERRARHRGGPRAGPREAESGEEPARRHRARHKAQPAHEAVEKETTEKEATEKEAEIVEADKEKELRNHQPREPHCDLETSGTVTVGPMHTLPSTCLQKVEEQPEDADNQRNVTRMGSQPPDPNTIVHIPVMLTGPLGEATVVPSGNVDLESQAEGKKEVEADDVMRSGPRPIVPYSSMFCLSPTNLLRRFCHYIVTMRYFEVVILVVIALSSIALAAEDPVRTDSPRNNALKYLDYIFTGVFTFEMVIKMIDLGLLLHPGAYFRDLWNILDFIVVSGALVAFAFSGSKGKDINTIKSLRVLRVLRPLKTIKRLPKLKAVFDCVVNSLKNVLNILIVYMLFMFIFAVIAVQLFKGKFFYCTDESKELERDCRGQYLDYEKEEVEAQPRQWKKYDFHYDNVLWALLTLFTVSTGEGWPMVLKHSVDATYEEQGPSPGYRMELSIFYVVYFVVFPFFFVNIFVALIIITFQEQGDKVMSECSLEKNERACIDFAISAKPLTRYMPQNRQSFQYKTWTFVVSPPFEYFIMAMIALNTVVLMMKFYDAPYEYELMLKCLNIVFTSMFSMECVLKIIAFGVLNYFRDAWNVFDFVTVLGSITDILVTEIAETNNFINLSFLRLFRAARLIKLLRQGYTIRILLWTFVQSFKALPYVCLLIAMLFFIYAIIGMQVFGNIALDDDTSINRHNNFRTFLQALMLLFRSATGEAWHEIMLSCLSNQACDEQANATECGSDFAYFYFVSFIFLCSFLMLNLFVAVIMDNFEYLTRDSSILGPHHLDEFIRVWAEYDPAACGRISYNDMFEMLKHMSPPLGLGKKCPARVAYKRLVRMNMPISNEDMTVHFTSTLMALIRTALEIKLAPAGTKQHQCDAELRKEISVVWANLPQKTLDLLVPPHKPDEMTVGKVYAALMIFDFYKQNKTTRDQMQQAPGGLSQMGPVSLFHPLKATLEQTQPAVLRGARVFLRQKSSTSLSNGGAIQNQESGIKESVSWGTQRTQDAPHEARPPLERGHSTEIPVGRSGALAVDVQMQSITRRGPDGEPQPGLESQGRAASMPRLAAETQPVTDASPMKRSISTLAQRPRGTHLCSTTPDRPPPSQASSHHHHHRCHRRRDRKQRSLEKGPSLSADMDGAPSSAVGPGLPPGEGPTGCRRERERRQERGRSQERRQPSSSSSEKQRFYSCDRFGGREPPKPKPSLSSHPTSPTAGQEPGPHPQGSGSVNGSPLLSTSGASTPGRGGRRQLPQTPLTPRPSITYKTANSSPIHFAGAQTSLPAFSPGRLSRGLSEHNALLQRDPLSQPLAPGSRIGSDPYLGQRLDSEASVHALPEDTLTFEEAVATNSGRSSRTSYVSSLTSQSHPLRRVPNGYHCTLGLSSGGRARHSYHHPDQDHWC
T1 sequence (Q02410 whole entry): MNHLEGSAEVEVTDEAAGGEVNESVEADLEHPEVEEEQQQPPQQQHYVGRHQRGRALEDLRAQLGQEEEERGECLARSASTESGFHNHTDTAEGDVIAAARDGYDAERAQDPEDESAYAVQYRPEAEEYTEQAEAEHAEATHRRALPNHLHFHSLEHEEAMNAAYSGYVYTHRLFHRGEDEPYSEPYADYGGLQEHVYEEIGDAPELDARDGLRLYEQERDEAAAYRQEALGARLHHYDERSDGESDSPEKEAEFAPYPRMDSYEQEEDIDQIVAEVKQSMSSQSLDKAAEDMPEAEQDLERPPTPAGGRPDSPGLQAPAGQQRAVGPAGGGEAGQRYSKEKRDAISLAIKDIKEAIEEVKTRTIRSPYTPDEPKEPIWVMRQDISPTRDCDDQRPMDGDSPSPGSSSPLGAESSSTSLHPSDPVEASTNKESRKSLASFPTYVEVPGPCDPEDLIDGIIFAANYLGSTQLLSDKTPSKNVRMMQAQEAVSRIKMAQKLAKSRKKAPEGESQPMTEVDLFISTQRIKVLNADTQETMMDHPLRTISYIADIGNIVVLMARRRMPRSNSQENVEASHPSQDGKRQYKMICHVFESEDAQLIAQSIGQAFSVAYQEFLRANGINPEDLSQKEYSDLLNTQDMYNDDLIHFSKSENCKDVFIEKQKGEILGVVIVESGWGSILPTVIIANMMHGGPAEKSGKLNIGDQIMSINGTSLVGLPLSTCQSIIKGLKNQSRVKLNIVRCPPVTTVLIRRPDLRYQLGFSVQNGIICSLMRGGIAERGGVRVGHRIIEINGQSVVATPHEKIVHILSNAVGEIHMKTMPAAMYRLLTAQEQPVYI
SUMO-activating enzyme, sequence (Q9UBE0 whole entry): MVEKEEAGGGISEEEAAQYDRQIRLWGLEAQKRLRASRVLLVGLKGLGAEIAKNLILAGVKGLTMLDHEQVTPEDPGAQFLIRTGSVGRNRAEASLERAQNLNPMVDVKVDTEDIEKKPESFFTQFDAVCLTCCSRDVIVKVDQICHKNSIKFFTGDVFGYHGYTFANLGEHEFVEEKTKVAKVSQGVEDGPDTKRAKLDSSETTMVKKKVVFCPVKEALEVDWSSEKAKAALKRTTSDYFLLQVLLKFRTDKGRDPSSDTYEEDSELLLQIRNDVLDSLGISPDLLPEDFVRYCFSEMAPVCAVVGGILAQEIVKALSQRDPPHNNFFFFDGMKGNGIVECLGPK
SUMO-activating enzyme, sequence (Q9UBT2 whole entry): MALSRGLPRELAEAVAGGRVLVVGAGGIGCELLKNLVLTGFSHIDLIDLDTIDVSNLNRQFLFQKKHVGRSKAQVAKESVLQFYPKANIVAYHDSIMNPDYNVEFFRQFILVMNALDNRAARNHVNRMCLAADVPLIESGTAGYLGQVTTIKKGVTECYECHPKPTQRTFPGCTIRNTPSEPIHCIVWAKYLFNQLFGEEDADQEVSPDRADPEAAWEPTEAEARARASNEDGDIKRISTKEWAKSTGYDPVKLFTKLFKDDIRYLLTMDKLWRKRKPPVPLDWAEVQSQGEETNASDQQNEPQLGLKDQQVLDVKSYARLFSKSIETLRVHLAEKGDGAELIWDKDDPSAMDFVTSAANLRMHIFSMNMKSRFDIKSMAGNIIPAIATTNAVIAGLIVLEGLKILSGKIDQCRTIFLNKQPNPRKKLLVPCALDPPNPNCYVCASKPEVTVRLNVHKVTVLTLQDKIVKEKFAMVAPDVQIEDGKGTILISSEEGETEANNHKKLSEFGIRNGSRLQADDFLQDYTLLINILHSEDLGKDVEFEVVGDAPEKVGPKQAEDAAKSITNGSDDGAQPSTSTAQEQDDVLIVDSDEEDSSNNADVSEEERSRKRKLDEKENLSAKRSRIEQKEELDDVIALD

COc1cc(NC(=O)c2cccc(F)c2)ccc1NC(=O)c1cc2ccccc2o1
CC50 [1]: > 50 µM (active) | IC50 [2]: 6.19 µM (active) | IC50 [3]: > 50 µM (inactive)

COC(=O)Cc1c(C)c2ccc(OCc3nn[nH]n3)c(C)c2oc1=O
AC50 (Trypsin): 21.3 µM (active) | AC50 (CAAX prenyl protease 2 [4]): 24.6 µM (active) | AC50 (CAAX prenyl protease 1): 12.6 µM (active) | AC50 (CAAX prenyl protease 2 [5]): 29.6 µM (active)

COc1ccccc1OCCOc1ccc(/C=C2/C(=N)N3OC(C)=CC3=NC2=O)cc1OC
IC50 [2]: 0.212 µM (active) | IC50 [3]: > 50 µM (inactive) | AC50 (Cytochrome P450 2C19): 2 µM (inconclusive) | AC50 (Cytochrome P450 2D6): 6.31 µM (inconclusive)

CCOc1cc(C2C(C#N)=C(N)OC(C)=C2C(C)=O)cc(Br)c1O (stereo not given)
EC50 [6]: 12.3 µM (inconclusive) | EC50 [7]: 12.3 µM (active) | AC50 (Keap1/Nrf2): > 52 µM (inactive)

COc1ccc(-c2cc(C(=O)Nc3cnn(Cc4ccccc4C)c3)no2)cc1OC
AC50 (Cytochrome P450 2C19): 25.1 µM (inconclusive) | AC50 (Cytochrome P450 3A4): inconclusive

CC(OC(=O)c1cc2c(ccc3ccccc32)oc1=O)c1nc2ccccc2s1 (stereo not given)
IC50 [8]: > 32 µM (inactive) | EC50 (Mu-type opioid receptor): > 32 µM (inactive) | EC50 [9]: > 32 µM (inactive) | IC50 [10]: 10.5 µM (active) | EC50 (Beta-galactosidase): > 31.5 µM (inactive) | IC50 [11]: > 32 µM | IC50 (H9c2): > 79 µM (inactive)

O=C(Cn1c2ccccc2c(=O)c2ccccc21)Nc1ccccc1F
AC50 (CAAX prenyl protease 1): 6.04 µM (active) | AC50 (CAAX prenyl protease 2 [5]): 0.345 µM (active)

Cc1c(C(=O)Nc2ccc(F)cc2)cn2c(nc3ccccc32)c1C#N
IC50 (SUMO-activating enzyme): 41.7 µM (active)

CCOC(=O)Cn1c2ccccc2c2nc3ccccc3nc21
IC50 (SUMO-activating enzyme): 29.6 µM (active) | EC50 [12]: 107 µM (active)

O=C(Nc1ccc(N2CCN(C(=O)c3ccco3)CC2)c(Cl)c1)c1cccs1
CC50 [13]: > 40 µM (active) | CC50 [14]: > 20 µM (active)

O=C(NNC1=Nc2ccccc2SC1)c1ccc(Cl)cc1
IC50 [8]: > 32 µM (inactive) | EC50 [15]: 11 µM (active) | EC50 (Mu-type opioid receptor): > 32 µM (inactive) | EC50 [9]: > 32 µM (inactive) | EC50 [16]: 18.4 µM (active) | EC50 [17]: 8.56 µM (active) | IC50 [10]: 10.5 µM (active) | EC50 (Beta-galactosidase): > 31.5 µM (inactive) | IC50 [11]: > 32 µM

CN1CCN(c2ncc3nc(-c4ccc(Cl)cc4)c(=O)n(C)c3n2)CC1
AC50 (Cytochrome P450 3A4): inconclusive

O=C(N/N=C/c1ccc(O)cc1)c1ccc(-c2csc(Nc3ccc(Cl)cc3)n2)cc1
IC50 [18]: > 100 µM (inactive) | IC50 [19]: > 100 µM (inactive) | IC50 [20]: 24.1 µM (active) | IC50 [21]: > 100 µM (inactive) | IC50 [22]: > 100 µM (inactive)
